{
  "source": "patent US20050075275A1",
  "about": "“Regulation of the apj receptor for use in the treatment or prophylaxis of cardiac diseases” (Bayer Aktiengesellschaft, priority 2001, published 2005)",
  "system": "APJ Receptor",
  "test": "In vivo investigations of the stimulation of the APJ receptor by apelin in anesthetized dogs (blood pressure, heart rate, coronary flow)",
  "protocol": "Adult FBI (Foxhound-Beagle-Irish-Setter) dogs (20-30 kg) are initially anesthetized with thiopental Na (Trapanal, Byk-Gulden) 20-30 mg/kg i.v. Alcuronium chloride (Alloferin, Roche) 0.1 mg/kg is initially given i.v. for muscle relaxation. The animals are intubated and ventilated with a ⅓ O2/N2O mixture using an Engström respiratory pump with 15-18 breaths per min and a volume of 18-24 ml/kg. The ventilation is set accurately according to the arterial partial pressure of CO2, maintaining an average pCO2 of 35-45 mmHg. The maintenance anesthesia is done with isoflurane (Baxter) 1.5-3%. The body temperature is kept at 38° C.±0.1° C. The arterial blood pressure is measured via a catheder in the femoral artery. A thoracotomy is performed at the fifth intercostal space on the left side. The lung is retracted and fixed, and the pericardium is incised. A proximal section of the LAD (left coronary artery) distal to the first diagonal branch is exposed, and a calibrated electromagnetic flow probe (Gould Statham, model SP7515) is placed around the vessel and connected to a flowmeter (Statham, model SP-2202). A mechanical occluder is attached distal of the flow probe in such a way that no branches lie between flow probe and occluder.\nBlood is taken and substances are administered through a catheder in the femoral vein. A peripheral ECG is recorded with subcutaneously fixed needles. A microtip pressure manometer (Millar model PC-350) is pushed through the left atrium in order to measure the left ventricular pressure. Measurement of the heart rate is controlled by the R wave of the ECG. The hemodynamic parameters and the coronary flow are recorded on a multichannel recorder throughout the experiment.\nThe experiment is started after a stabilization time of 1 hour. […] The heart rate, blood pressure and coronary flow are recorded and analyzed.",
  "data": [
    {"substance": "apelin", "values": [
      {"measurement": "coronary flow", "setting": "10 μg/kg i.v. bolus", "value": "significant increase in the coronary flow"},
      {"measurement": "heart rate", "setting": "bolus and continuous infusion", "value": "without changing the heart rate"},
      {"measurement": "blood pressure", "setting": "bolus and infusion", "value": "reduction in the blood pressure"},
      {"measurement": "coronary flow", "setting": "infusion 1, 3, 5, 10 μg/kg/min for 10 min", "value": "dose-dependent increase in coronary flow"},
      {"measurement": "infusion rate at which maximum increase in coronary flow is reached", "setting": "infusion for 10 min", "value": 3, "unit": "µg/kg/min"}
    ]}
  ]
}
